“Also recorded” adds a separate entry of the source. Marks after values point to notes of the source that are not given here.
How the values were obtained:
[1] = p.o. dose 500 mg/kg, rats; cited from earlier work
[2] = system: antioxidant response element (ARE); test: ARE-luciferase activity assay in HepG2-ARE-C8 cells; type: cell-based; settings: 24 h treatment
[3] = LC-MS-MS analysis of GSH conjugates; settings: 1 mM GSH, pH 8.0, 1 h, room temperature
[4] = Crystal violet cytotoxicity assay; type: cell-based; settings: mouse, Hepa1c1c7 murine hepatoma cells
[5] = system: NAD(P)H:quinone oxidoreductase 1 (NQO1); test: In vitro NQO1 induction assay in Hepa-1c1c7 cells; settings: Hepa1c1c7 cells; for NQO1 assay CD ± SD (concentration required for two-fold induction of NQO1): pure compounds, 48 h
[6] = DPPH assay; type: biochemical; settings: for DPPH % FRS ± SD: pure compounds at screening concentration of 100 μM
[7] = dry state, 24 h at room temperature, from 98.6% freshly isolated; cited from earlier work
[8] = system: NAD(P)H:quinone oxidoreductase 1 (NQO1); settings: cited from earlier work

Compound: CCC/C=C1\OC(=O)C2=C1CCC=C2 [Compound 1, Z-ligustilide]
- GSH conjugate in plasma [1]: a GSH conjugate with monooxygenated ligustilide (mass 206) could be detected in the plasma
- ARE-luciferase reporter activity [2]: increased ARE-luciferase reporter activity in a dose-dependent manner; also recorded: induced ARE reporter luciferase activity in a dose-dependent manner
- covalent modification of GSH / GSH conjugate formation [3]: covalently modified GSH; also recorded: formed GSH conjugates
- IC50 at 48 h [4]: 71.2 ± 4.1 µM
- NQO1 inducing activity (in words) [5]: respectable NQO1 inducing activities
- DPPH % FRS ± SD [6]: < 50%
- purity (GC-MS) after degradation [7]: 58.1%

Compound: CCC/C=C1\OC(=O)c2ccccc21 [Compound 2, Z-butylidenephthalide]
- IC50 at 48 h [4]: > 20 µM
- NQO1 inducing activity (in words) [5]: did not induce NQO1 activity
- NQO1 assay CD ± SD (concentration required for two-fold induction of NQO1) [5]: > 20 µM
- DPPH % FRS ± SD [6]: < 50%

Compound: CCC/C=C1\OC(=O)C2=C1CC[C@@H](O)[C@@H]2O [Compound 3, senkyunolide I]
- NQO1 inducing activity (in words) [5]: weak NQO1 inducing properties
- NQO1 assay CD ± SD (concentration required for two-fold induction of NQO1) [5]: 17.9 ± 0.6 µM
- DPPH % FRS ± SD [6]: < 50%

Compound: CCC/C=C1\OC(=O)C2=CC3CCC21[C@]1(OC(=O)c2ccccc21)[C@@H]3CCC (stereo partly shown) [Compound 4, ansaspirolide]
- CI (Chemopreventive Index: IC50/CD) [5]: 3
- NQO1 inducing activity (in words) [5]: potent inducing properties
- NQO1 assay CD ± SD (concentration required for two-fold induction of NQO1) [5]: 0.9 ± 0.1 µM
- DPPH % FRS ± SD [6]: < 50%

Compound: CCC/C=C1\OC(=O)C23C=CCCC12C1(OC(=O)c2ccccc21)C3CCC (stereo not shown) [Compound 5, sinaspirolide]
- NQO1 inducing activity (in words) [5]: did not show any NQO1 inducing activity
- NQO1 assay CD ± SD (concentration required for two-fold induction of NQO1) [5]: > 20 µM
- DPPH % FRS ± SD [6]: < 50%

Compound: COc1cc(/C=C/C(=O)OCC(O)C(OC)c2ccc(O)c(OC)c2)ccc1O (stereo not shown) [Compound 6, angeliferulate]
- NQO1 inducing activity (in words) [5]: respectable NQO1 inducing activities; also recorded: high NQO1 inducing properties
- NQO1 assay CD ± SD (concentration required for two-fold induction of NQO1) [5]: 7.5 ± 0.2 µM

Compound: COc1cc(/C=C/C(=O)OCCc2ccc(O)cc2)ccc1O [Compound 7, p-hydroxyphenethyl trans-ferulate]
- NQO1 inducing activity (in words) [5]: respectable NQO1 inducing activities; also recorded: high NQO1 inducing properties
- NQO1 assay CD ± SD (concentration required for two-fold induction of NQO1) [5]: 2.4 ± 0.3 ^f μM
- radical scavenging activity (in words) ([6]; DPPH): moderate radical scavenging activity
- DPPH % FRS ± SD [6]: 65 ± 1%

Compound: C[S+]([O-])CCCCN=C=S (stereo not shown) [sulforaphane]
- CI (chemopreventive index) [8]: 26

Reference: PMC2615640 (Chemical research in toxicology, 2008)
